Among the data in PubChem BioAssay (NCI) are TGI and GI50 values, retold here.

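1) Cells in 96-well plates. 2) Compound, 48 h, 5 concentrations. 3) Linear interpolation between surrounding doses. 4) Unreached endpoint = highest concentration. GI50: concentration for 50% inhibition of growth. TGI is the concentration that stops growth completely.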

Some test systems named below: SNB-19 CNS; NCI-H522 lung; MALME-3M melanoma; SK-MEL-5 melanoma; SN12C renal; CCRF-CEM leukemia; SK-MEL-28 melanoma; HS 578T breast; U251 CNS; SR leukemia.
Holding throughout (assay): NCI tumour cell line growth inhibition, 48 h

In the case of `O=S1(=O)CS(=O)(=O)OCCCO1`, the TGI in the test on SNB-19 CNS, with NCI-H522 lung, in the test on MALME-3M melanoma, in the test with SK-MEL-5 melanoma, in the test with SN12C renal and in the test with CCRF-CEM leukemia was over 100 µM throughout. In addition, the TGI in the test with SK-MEL-28 melanoma, in the test on HS 578T breast, in the test with U251 CNS and in the test on SR leukemia was over 100 µM throughout.

Consider `COc1ccc2c(=O)c3cc([N+](=O)[O-])ccc3n(C)c2c1`, for which the TGI in the test with SNB-19 CNS, in the test with NCI-H522 lung, with MALME-3M melanoma, in the test on SK-MEL-5 melanoma, with SN12C renal and in the test with CCRF-CEM leukemia was over 100 µM each time. Further, the TGI in the test with SK-MEL-28 melanoma, in the test on HS 578T breast, in the test with U251 CNS and with SR leukemia was over 100 µM throughout.

Turning to `Cc1nc(/N=C(\N)NC(=O)Nc2ccccc2Cl)sc1C`, the GI50 was 0.462 µM with SNB-19 CNS; 0.189 µM in the test on NCI-H522 lung; 0.643 µM in the test on MALME-3M melanoma; 0.508 µM with SK-MEL-5 melanoma; 0.739 µM in the test on SN12C renal; 0.352 µM in the test with CCRF-CEM leukemia. Also, the GI50 is 0.916 µM with SK-MEL-28 melanoma, 0.548 µM in the test on HS 578T breast, 0.439 µM in the test with U251 CNS and 0.173 µM in the test on SR leukemia. Moreover, the TGI with SNB-19 CNS was 12.4 µM; in the test with MALME-3M melanoma it was 4.79 µM; in the test with SK-MEL-5 melanoma it was 7.39 µM; in the test on SN12C renal, over 100 µM; in the test with CCRF-CEM leukemia, over 53.2 µM; with SK-MEL-28 melanoma, over 100 µM. The TGI with HS 578T breast was found to be 5.55 µM; with U251 CNS it was 6.13 µM; in the test on SR leukemia, 35.5 µM.

On to `C/C(=C\CCc1ccoc1)CC/C=C(\C)CCCN1CCC(CO)CC1`, for which the GI50 is 4.61 µM with SNB-19 CNS; 2.17 µM in the test on NCI-H522 lung; 1.79 µM in the test on MALME-3M melanoma; 1.5 µM in the test on SK-MEL-5 melanoma; 4.54 µM in the test on SN12C renal; 2.42 µM in the test on CCRF-CEM leukemia. Besides, the GI50 is 1.89 µM in the test on SK-MEL-28 melanoma, 2.6 µM in the test on HS 578T breast, 2.41 µM with U251 CNS and 1.66 µM with SR leukemia. The TGI in the test with SNB-19 CNS turned out to be 19.4 µM; in the test on NCI-H522 lung it was 5.83 µM; in the test on MALME-3M melanoma, 3.52 µM; with SK-MEL-5 melanoma, 2.84 µM; in the test on SN12C renal, 18.9 µM; in the test with CCRF-CEM leukemia, 6.47 µM. The TGI in the test on SK-MEL-28 melanoma came out at 4.03 µM; with HS 578T breast, 8.08 µM; with U251 CNS, 9.24 µM; in the test with SR leukemia, 4.29 µM.

`C=C1C(=O)O[C@@H]2C[C@@H]1CC[C@@]1(C)O[C@@H]1CC[C@@]1(C)O[C@@H]1CC[C@@]2(C)O`: the GI50 in the test on SNB-19 CNS was 17.6 µM; with NCI-H522 lung, 17.5 µM; in the test on MALME-3M melanoma, 16.2 µM; in the test with SK-MEL-5 melanoma, 16.2 µM; in the test with SN12C renal, 16.1 µM; in the test on CCRF-CEM leukemia it was 28.1 µM. The GI50 is 17.4 µM with SK-MEL-28 melanoma, 21.6 µM in the test on HS 578T breast, 16.1 µM with U251 CNS and 3.12 µM in the test on SR leukemia. Also, the TGI was 66 µM with SNB-19 CNS; 45.4 µM with NCI-H522 lung; 42.3 µM with MALME-3M melanoma; 31.4 µM in the test on SK-MEL-5 melanoma; 40.1 µM in the test on SN12C renal; over 100 µM in the test on CCRF-CEM leukemia. Also, the TGI was found to be 34.8 µM with SK-MEL-28 melanoma, 61.2 µM in the test with HS 578T breast, 36.1 µM in the test on U251 CNS and 16.3 µM in the test with SR leukemia.

Consider `N#Cc1c(-c2ccccc2)cc(-c2ccccc2)n(CCCCC(=O)NO)c1=O`, for which the GI50 is 3.53 µM with SNB-19 CNS; 2.06 µM in the test with NCI-H522 lung; 1.25 µM with MALME-3M melanoma; 1.84 µM in the test on SK-MEL-5 melanoma; 2.95 µM in the test with SN12C renal; 1.68 µM in the test with CCRF-CEM leukemia. For the same molecule, the GI50 in the test with SK-MEL-28 melanoma is 2.8 µM; with HS 578T breast, 2.03 µM; with U251 CNS, 2.79 µM; with SR leukemia, 1.32 µM. Further, the TGI in the test on SNB-19 CNS was 15.6 µM; in the test on NCI-H522 lung, 8.36 µM; with MALME-3M melanoma it was 13.3 µM; in the test on SK-MEL-5 melanoma, 3.59 µM; in the test with SN12C renal, 11.5 µM; in the test with CCRF-CEM leukemia it was 6.45 µM. For the same molecule, the TGI in the test with SK-MEL-28 melanoma came out at 10.4 µM; in the test on HS 578T breast, 8.18 µM; in the test with U251 CNS it was 11.1 µM; with SR leukemia, 8.37 µM.

Consider `COc1c(CNC(=O)CCl)cc2[nH]c(C)cc2c1CNC(=O)CCl`, for which the GI50 was 12.5 µM with SNB-19 CNS; 1.82 µM with NCI-H522 lung; 16.1 µM in the test with MALME-3M melanoma; 8.02 µM in the test on SK-MEL-5 melanoma; 4.92 µM in the test with SN12C renal; 2.71 µM with CCRF-CEM leukemia. Also, the GI50 is 5.44 µM in the test on SK-MEL-28 melanoma, 4.97 µM with HS 578T breast, 1.94 µM with U251 CNS and 4.36 µM in the test with SR leukemia. Besides, the TGI in the test on SNB-19 CNS was 91 µM; with NCI-H522 lung it was 4.16 µM; in the test with MALME-3M melanoma, 50.3 µM; in the test on SK-MEL-5 melanoma, 25 µM; with SN12C renal, 39.9 µM; in the test on CCRF-CEM leukemia, over 100 µM. Moreover, the TGI is 29.8 µM in the test on SK-MEL-28 melanoma, 76.8 µM in the test with HS 578T breast, 4.7 µM with U251 CNS and over 100 µM with SR leukemia.

In the case of `CC(=O)OCC1OC(OC2=C(CC=C(Cl)Cl)C(=O)c3ccccc3C2=O)C(OC(C)=O)C(OC(C)=O)C1OC(C)=O` (centres undefined), the GI50 is 11.8 µM in the test with SNB-19 CNS; 2.17 µM with NCI-H522 lung; 2.66 µM in the test with MALME-3M melanoma; 4.32 µM with SK-MEL-5 melanoma; 5.62 µM in the test with SN12C renal; 0.894 µM in the test on CCRF-CEM leukemia. Further, the GI50 is 3.93 µM in the test on SK-MEL-28 melanoma, 3.98 µM in the test with HS 578T breast, 3.54 µM in the test on U251 CNS and 3.11 µM in the test on SR leukemia. For the same molecule, the TGI is 24.8 µM in the test on SNB-19 CNS; 5.2 µM in the test on NCI-H522 lung; 5.83 µM in the test on MALME-3M melanoma; 17 µM in the test on SK-MEL-5 melanoma; 18.7 µM in the test with SN12C renal; over 100 µM in the test with CCRF-CEM leukemia. For the same molecule, the TGI in the test on SK-MEL-28 melanoma was 12.8 µM; with HS 578T breast, 32.2 µM; in the test on U251 CNS, 13.3 µM; in the test with SR leukemia it was over 100 µM.
